# Tested on: mice with radiation-induced pulmonary fibrosis
# Assay: Inhibitory effect on radiation-induced pulmonary fibrosis in mice (micro-CT, H&E and Masson's Trichrome staining)
# Type: in vivo, C57BL/6 mice
# Conditions: first dose 1 h prior to SBRT (90 Gy), two weeks after radiation, as compared to untreated group
# Description: Seven-week-old male C57BL/6 mice were divided into groups receiving nintedanib, which is an FDA-approved pulmonary fibrosis inhibitor, dacomitinib, which is an EGFR TKI, and a combination thereof, and orally administered one hour prior to stereotactic body radiation therapy (SBRT) (90 Gy, 4 mm collimator). Two weeks after radiation, the degree of pulmonary fibrosis and the inhibitory effect on radiation-induced lung injury were observed.
# The nintedanib group received 60 mg/kg daily, the dacomitinib group received 10 mg/kg daily, and the combination group received 60 mg/kg of nintedanib and 10 mg/kg of dacomitinib. All drugs were orally administered daily. In addition, to analyze the degree of inflammatory response and the degree of fibrosis, H&E staining and Masson's Trichrome staining were performed and the grade of pulmonary fibrosis and the degree of collagen deposition are graphically represented in FIG. 2.
SMILES,"degree of pulmonary fibrosis (dacomitinib alone, 10 mg/kg daily oral)","degree of pulmonary fibrosis (nintedanib alone, 60 mg/kg daily oral)"
"COc1cc2ncnc(Nc3ccc(F)c(Cl)c3)c2cc1NC(=O)/C=C/CN1CCCCC1 [dacomitinib, (E)-N-(4-((3-chloro-4-fluorophenyl)amino)-7-methoxyquinazolin-6-yl)-4-(piperidin-1-yl) but-2-enamide]",reduced fibrosis,–
"COC(=O)c1ccc2c(c1)NC(=O)/C2=C(\Nc1ccc(N(C)C(=O)CN2CCN(C)CC2)cc1)c1ccccc1 [nintedanib, methyl (3Z)-3-{[(4-(methyl[(4-methylpiperazin-1-yl)acetyl]amino}phenyl)amino](phenyl)methylidene)-2-oxo-2,3-dihydro-1H-indole-6-carboxylate]",–,reduced fibrosis
